Here are results for 2 compounds from patent US20260232684A1, “FLT3 INHIBITORS AND METHODS OF USING THE SAME” (BIOVENTURES, LLC, priority 2023, published 2026).

In experiment [1] the test system is Ba/F3 FLT3-ITD F691M line. The experiment in a line: Cell viability, Ba/F3 FLT3-ITD F691M gatekeeper mutant. It counts as cell-based. As to conditions: IC50, 48 hours, CellTiter GLO. The method, then: (§1) FIG. 3. Molecular docking study of compound 1 and impact of the most common gatekeeper variants in the human kinome on activity toward […]. […] The dim FLT3 active model was built using 1PKG (KIT) as a reference using Prime (Schrodinger®). The complex of active FLT3 bound to 1 was minimized by Embrace (Schrodinger®). […] Cells were treated with inhibitor at increasing log doses (0.1 nM-10 μM) for 48 hours. Cell viability was analyzed through CellTiter GLO.
(§2) To further investigate the possibility of a hydrophobic cage interaction and its contribution to the selectivity of compound 1, we assessed the impact of substitutions of the native phenylalanine at position 691 with the other residues most commonly found at this position in the human kinome (methionine, threonine, isoleucine, or valine). Ba/F3 cells transformed with FLT3-ITD or with FLT3-ITD substitutions at position 691 were assessed for sensitivity to compound 1 (FIG. 3C).
(§3) Exponentially growing cells (1×10^3-1×10^4 cells) were plated in triplicate in a 96-well plate with 0.1 mL of RPMI 1640+10% (vol/vol) FBS. Each triplicate was either dosed with drug or DMSO vehicle control. Drug dosing was completed at log doses ranging from 0.1 nM-10 μM. Cell viability was assessed after 48 hours using CellTiter GLO (Promega). Viability values were normalized to the vehicle control average. Numerical IC50 values were calculated in GraphPad Prism 7. […]
A general note: In ATP-based viability assays light output follows the ATP content of the culture.

Experiment [2] has as its system FLT3 phosphorylation in parental Molm14 cells. Kind of experiment: Immunoblotting of phospho-FLT3 and downstream signaling, Molm14. To be noted: parental Molm14, 2 hours, Western blot. The experiment is classed as cell-based, human. The method, then: FIG. 1. Activity of compounds 1 and 2 against parental Molm14 cells harboring secondary kinase domain mutations associated with clinical resistance to active FLT3 TKIs. […] Each point represents the calculated IC50 from an independent experiment completed in triplicate. Cells were treated with inhibitor at increasing log doses (0.1 nM-10 μM) for 48 hours. Cell viability was analyzed through CellTiter GLO. […] Cells were exposed to increasing amounts of each drug for 2 hours. GAPDH1 represents loading control for phospho-ERK and ERK blots. GAPDH2 represents loading control for phosphor-STAT5, STAT5, phospho-S6 and S6. Each experiment was completed in triplicate. Representative images are shown.
Exponentially growing Molm-14 or Ba/F3 cells were plated with RPMI 1640+10% (vol/vol) FBS with the indicated amount of drug. Following 120 minute incubation at 37° C., cells were washed in PBS and lysed in HEPES lysis buffer supplemented with protease and phosphatase inhibitors and processed as previously described (39). Immunoblotting was performed using anti-phospho-tyrosine 4G10 antibody (Millipore Sigma) and anti-FLT3 antibody (Cell Signaling Technology) following immunoprecipitation with anti-FLT3 antibody from 500 μg of total protein. […]

Experiment [3] concerns Ba/F3 FLT3-ITD with Thr, Ile, or Val gatekeeper residues. The experiment in a line: Cell viability, Ba/F3 FLT3-ITD with Thr, Ile or Val gatekeeper. The experiment is classed as cell-based. As to conditions: other gatekeeper mutants (Thr, Ile, Val) compared with F691M. The protocol:
as §1, §2, §3

The target of another experiment is FLT3 D835Y (Homo sapiens, UniProt P36888, D835Y). Kind of experiment: Enzyme kinetic analysis (5-FAM microfluidic assay), FLT3 D835Y. It counts as biochemical. To be noted: variable ATP and inhibitor concentrations. The protocol: FIG. 14. Enzyme kinetic analysis of compound 1 and 2 against FLT3 and FLT3 D835Y. The 5-FAM labeled microfluidic assay was utilized and all the activities were measured using Caliper EZ Reader II with a 12-sipper chip. In the presence of variable concentrations of compound 1 or 2, phosphorylation activities of FLT3 and FLT3 D835Y were measured at different level of ATP within certain time durations.
To further assess putative binding modes of compounds 1 and 2, enzyme kinetic analyses were performed.

Experiment [4] has as its system Molm-14 F691L cells stably expressing firefly luciferase. Kind of experiment: Circulating tumor model, Molm14 F691L luciferase. It counts as in vivo. The protocol:
FIG. 7. […] Molm14 F691L stably expressing FLuc9 were engrafted in mice through tail vein injection. Mice were imaged once every three days.
Molm-14 F691L cells stably expressing firefly luciferase were injected into the tail vein of NSG mice and tumor growth was monitored through bioluminescence.

Turning to `CN(C)CCNc1ncc(F)c(-c2cnc3cc(-c4cnn(C)c4)ccn23)n1` [Compound 1], the “loss of activity relative to the Ba/F3 FLT3-ITD line” value in experiment [1] was about 100 fold. In addition, the “inhibition of FLT3 phosphorylation and downstream signaling, in words” value in experiment [2] is “low nanomolar concentrations were sufficient to inhibit phosphorylation of FLT3”. In addition, in experiment [3], the “loss of activity relative to the Ba/F3 FLT3-ITD line, in words” value is on record as “an even greater impact”.
With `CC(C)(C)c1cc(NC(=O)Cc2ccc(-c3cnc4cc(-c5cnn(CCN6CCOCC6)c5)ccc4n3)cc2)no1` [Compound 2, N-(5-(tert-butyl)isoxazol-3-yl)-2-(4-(6-(1-(2-morpholinoethyl)-1H-pyrazol-4-yl)quinoxalin-2-yl)phenyl) acetamide], at FLT3 D835Y, the “binding mode / inhibition model from enzyme kinetics” value was “intermediate conformation between type 1 and type 2”. Besides, in experiment [2], the “inhibition of FLT3 phosphorylation and downstream signaling, in words” value was “low nanomolar concentrations were sufficient to inhibit phosphorylation of FLT3”. Also, in experiment [4] (both doses of compound 2 (5 or 10 mg/kg) vs gilteritinib 33 mg/kg), the “tumor growth compared to gilteritinib” value is given as “statistically significant difference compared to gilteritinib”. Further, the “tumor growth (bioluminescence), in words” value in experiment [4] (daily oral gavage 14 days, compound 2 5 or 10 mg/kg, gilteritinib 33 mg/kg, vs vehicle control) is “nearly halt all tumor growth”.
